Experimental data from PubChem BioAssay AID1361 (SRMLSC, 2008).
Activity calls are given as the source filed them. No rule for the calls is given here.

Experiment: mitochondrial fusion inhibitors, confirmation, cell-based, chemical genetic, wild-type and mutant (AID 1361)
Details: Cell-based mitochondrial fusion phenotype, imaging
[1] = mutant cells, measured here: mutant cell line IC50

Row | Structure (SMILES) | IC50 (WT cells) | IC50 [1]
1 | O=C(c1cc(-c2ccccc2)nc2ccccc12)N1CCCc2ccccc21 | 13.7 µM | > 25 µM
2 | COc1ccc(N2CCN(CCNC(=O)c3nnc(Cc4c(F)cccc4Cl)o3)CC2)cc1 | > 25 µM (inactive) | > 25 µM
3 | O=C1Nc2ccc(Cl)cc2C12Nc1ccccc1-c1nnc(SCc3ccccc3F)nc1O2 (stereo unspecified) | > 25 µM (inactive) | > 25 µM
4 | COc1ccc(C2CC(=O)c3cnc(Nc4cc(C)cc(C)c4)nc3C2)cc1 (stereo unspecified) | > 25 µM (inactive) | > 25 µM
5 | CCN(Cc1cc2cc(C)ccc2[nH]c1=O)C(=O)c1cccc(OC)c1 | > 25 µM (inactive) | > 25 µM
6 | O=C(COC(=O)c1ccccn1)Nc1cccc(Cl)c1Cl | > 25 µM (inactive) | > 25 µM
7 | Cc1nn(-c2ccccc2)c2sc(C(=O)N(Cc3ccco3)C(C)C(=O)NC(C)(C)C)cc12 (stereo unspecified) | 7.45 µM | 19.6 µM
8 | O=C1CC(C(=O)NCc2ccccc2)C2(CCCC2)O1 (stereo unspecified) | > 25 µM (inactive) | > 25 µM
9 | CC1(C)CC(=O)C2=C(C1)N(c1ccc(F)cc1)C(=O)C2(O)C(F)(F)F (stereo unspecified) | > 25 µM (inactive) | > 12.5 µM
10 | CC1(C)CC(=O)C(C=Nc2ccc3[nH]ncc3c2)=C(O)C1 | > 25 µM (inactive) | > 25 µM
11 | CCCCCCOC1(c2ccccc2)OC(=O)c2ccccc21 (stereo unspecified) | 17 µM | 21.5 µM
12 | Cc1ccc(C(C(=O)NCC2CCCO2)N(Cc2ccccc2)C(=O)c2ccc(-c3ccccc3)[nH]2)o1 (stereo unspecified) | 10.9 µM | > 25 µM
13 | COc1cccc(C2Nc3c(F)cc(Br)cc3C3C=CCC32)c1OC (stereo unspecified) | 14.9 µM | > 25 µM
14 | CC(C)(C)N=C1NN=C(c2cc3ccccc3o2)CS1 |  | > 25 µM
15 | CCC1Oc2ccc(C)cc2N(CC(=O)N(Cc2ccc(C)o2)C2CCCC2)C1=O (stereo unspecified) | > 25 µM (inactive) | > 25 µM
16 | COCC(C)NC(=O)c1cc(-c2cccc(OC)c2)on1 (stereo unspecified) | > 25 µM (inactive) | > 25 µM
17 | Cc1c(C)c2ccc(OC3CCCCC3=O)cc2oc1=O (stereo unspecified) | > 25 µM (inactive) | > 25 µM
18 | COc1ccc(NS(=O)(=O)c2ccc3oc(Nc4ccc5c(c4)OCCO5)nc3c2)cc1 | 17.6 µM | > 25 µM
19 | O=c1cc2c(nn1Cc1ccc(Cl)cc1Cl)-c1ccccc1CC2 | 10.6 µM | 17.8 µM
20 | COc1ccccc1C(=O)NC(=S)/C=C1/N(C)c2ccccc2C1(C)C | 10.8 µM | > 25 µM
21 | Cc1cc(NC(=S)N(Cc2cccc(Br)c2)CC2CCC(C(=O)O)CC2)ccc1Cl (stereo unspecified) | 21.9 µM | > 25 µM

Row | Structure (SMILES) | IC50 (WT cells) | IC50 [1]
22 | CC[n+]1c(SC)ccc2cc(OC)ccc21 | 11.5 µM | > 25 µM
23 | O=C(CNC(=S)N(Cc1ccccc1)Cc1ccccc1F)NCCc1ccc(Cl)cc1 | 4.01 µM | > 25 µM
24 | CCCCc1nc2ccccc2c(=O)n1-c1ccc(Cl)cc1[N+](=O)[O-] | > 25 µM (inactive) | > 25 µM
25 | C/C1=C\[C@@H](C)C/C=C/[C@H]2[C@@H]3O[C@]3(C)[C@@H](C)[C@H]3[C@H](Cc4c[nH]c5ccccc45)NC(=O)[C@]32C(=O)/C=C/C(=O)[C@@H]1O | 19 µM | > 25 µM
26 | COc1ccc(-c2noc(-c3ccccc3-c3ccccc3)n2)cc1OC | > 25 µM (inactive) | > 25 µM
27 | N#Cc1ccc(NC(=O)Nc2ccc(Cl)cc2)cc1 | 9.83 µM | 13.6 µM
28 | CC(=O)Cc1nsc(NC(=O)c2ccc(-c3ccc(Cl)c(Cl)c3)o2)n1 | > 25 µM (inactive) | > 25 µM
29 | O=Nc1c(O)n(Cc2cccc(Cl)c2)c2ccccc12 | > 25 µM (inactive) | > 25 µM
30 | CCOC(=O)C1CCN(S(=O)(=O)c2c(C)n[nH]c2C)CC1 | > 25 µM (inactive) | > 25 µM
31 | COc1ccc(C2C(C#N)=C(SC)NC3=C2C(=O)CC(C)(C)C3)cc1 (stereo unspecified) | > 25 µM (inactive) | > 25 µM
32 | Cc1ccccc1NC1=C(Cl)C(=O)N(C2CCCCC2)C1=O | 19.1 µM | > 25 µM
33 | C=CCOc1c(Br)cc(/C=N/Nc2ccc(C(=O)O)cc2)cc1OCC | 22.1 µM | > 25 µM
34 | O=C1COc2ccc(NC(=O)N3CCN(c4ccc(F)cc4)CC3)cc2N1 | > 25 µM (inactive) | > 25 µM
35 | Cc1ncsc1C(=O)Nc1nc2c(s1)CC(C)CC2 (stereo unspecified) | > 25 µM (inactive) | > 25 µM
36 | Cn1c(=O)n(C)c2cc([N+](=O)[O-])c(N3CCN(S(=O)(=O)c4ccc(C(C)(C)C)cc4)CC3)cc21 | 5.99 µM | > 25 µM
37 | Clc1ccc(Cn2c(/C=C/c3ccco3)nc3ccccc32)cc1 | 12.6 µM | > 25 µM
38 | Cc1ccc(N=Cc2c(O)n(-c3ccc4c(c3)OCO4)c(=O)c3ccccc23)cc1 | > 25 µM (inactive) | > 25 µM
39 | Cc1cccc(N/N=C(\C=N\N)C(=O)c2ccc(Br)cc2)c1 | > 25 µM (inactive) | > 25 µM
40 | CCc1nnc(NC(=O)C2Cc3ccccc3CN2S(=O)(=O)c2ccc(C)cc2)s1 (stereo unspecified) | > 25 µM (inactive) | > 25 µM
41 | Cc1cccc(NC(=S)NNC(=O)COc2ccc(Cl)cc2Cl)c1 | 10.9 µM | 21 µM
42 | Cc1ccc(C(C(=O)NC2CCCC2)N(C(=O)Cc2cccs2)c2ccc(C)c(C)c2)o1 (stereo unspecified) | 22.4 µM | > 25 µM

Row | Structure (SMILES) | IC50 (WT cells) | IC50 [1]
43 | CC(c1ccco1)N(C(=O)COc1ccccc1[N+](=O)[O-])c1ccccn1 (stereo unspecified) | > 25 µM (inactive) | > 25 µM
44 | CC(C)c1ccc(OCC(O)Cn2cnc3ccccc32)cc1 (stereo unspecified) | > 25 µM (inactive) | > 25 µM
45 | Cc1ccc(C2CN(C)C3(C(=O)Nc4ccccc43)C23COc2ccccc2C3=O)cc1 (stereo unspecified) | 11 µM | 23.7 µM
46 | O=C(CSc1ccccc1)NCc1cccnc1 | > 25 µM (inactive) | > 25 µM
47 | Cc1ccc(-c2ncccc2OC(=O)C23CC4CC(CC(C4)C2)C3)cc1 | 18.8 µM | > 25 µM
48 | COc1ccccc1Nc1ncnc2nc[nH]c12 | > 25 µM (inactive) | > 25 µM
49 | CCc1ccccc1NC(=S)N=Nc1c(O)n(C)c2ccc(S(=O)(=O)N3CCOCC3)cc12 | 1.37 µM | 9.5 µM
50 | CC(Sc1ccc(Cl)cc1)C(=O)Nc1ccccc1-c1ccccc1 (stereo unspecified) | 13 µM | > 25 µM
51 | CC(C)(C)[C@H]1C=C(C(=O)N2CCN(Cc3ccccc3)CC2)O[C@@H](OCc2ccc(CO)cc2)C1 | 21.7 µM | > 25 µM
52 | O=C(O)C1CCCCC1C(=O)Nc1ccc(F)cc1F (stereo unspecified) | > 25 µM (inactive) | > 25 µM
53 | CCOP(=O)(OCC)c1nc(/C=C/c2ccccc2)oc1NCc1ccccc1 | > 25 µM (inactive) | > 25 µM
54 | COc1ccccc1C1(CCNS(=O)(=O)c2ccc(C)cc2)CCOC(C(C)C)C1 (stereo unspecified) | 21 µM | > 25 µM
55 | CCCCN(CCCC)CCNC(=O)Cc1nc2c(c(=O)[nH]c(=O)n2C)n1C | > 25 µM (inactive) | > 25 µM
56 | N#CC1=C(N)NC(SCc2ccc(Br)cc2)=C(C#N)C12CCCCC2 | > 25 µM (inactive) | > 25 µM
57 | O=C(c1ccc2c(c1)OCO2)N(Cc1ccco1)C1(C(=O)NC2CCCCC2)CCCCC1 | > 25 µM (inactive) | > 25 µM
58 | CSC(=S)N/N=C/c1c[nH]c2ccccc12 | 7.53 µM | 11.2 µM
59 | COC(=O)C1=C(CSc2nc3ccccc3o2)NC(=O)NC1c1cc(C)ccc1C (stereo unspecified) | > 25 µM (inactive) | > 25 µM
60 | O=C(O)CCc1ccc(-c2ccc(F)cc2)n1Cc1ccco1 | > 25 µM (inactive) | > 25 µM
61 | N#CC1=C(N)SC(N)=C(C#N)C1c1c(Cl)cccc1Cl | > 25 µM (inactive) | > 25 µM
62 | Clc1ccc2c(c1)C(c1ccccc1Cl)=NCc1nnc(N3CCN(CCOc4ccccc4)CC3)n1-2 | 23.7 µM | > 25 µM
63 | O=C(Nc1ccccn1)c1ccco1 | > 25 µM (inactive) | > 25 µM

Row | Structure (SMILES) | IC50 (WT cells) | IC50 [1]
64 | COC(=O)CP(=O)(c1ccccc1)c1ccccc1 | > 25 µM (inactive) | > 25 µM
65 | CCCCc1cc2c(s1)CCCC/C2=N/O | > 25 µM (inactive) | > 25 µM
66 | COc1ccc(CCNS(=O)(=O)c2ccc(OC)cc2)cc1 | > 25 µM (inactive) | > 25 µM
67 | COC(=O)CNC(=O)CNC(=O)c1nn(-c2ccc(OC)c(Cl)c2)c(=O)c2ccccc12 | > 25 µM (inactive) | > 25 µM
68 | Cc1onc(-c2ccccc2Cl)c1C(=O)Nc1sc2c(c1C(N)=O)CCC(C)C2 (stereo unspecified) | 12.2 µM | > 25 µM
69 | c1ccc(-c2csc3ncnc(N4CCc5ccccc5C4)c23)cc1 | 9.44 µM | > 25 µM
70 | Cc1ccc(NCC(=O)N/N=C/c2cc3ccccc3nc2Cl)cc1 | > 25 µM (inactive) | > 25 µM
71 | COC(=O)[C@@H]1CC[C@H](C)[C@@H](c2ccc(C)cc2)N1C(=O)c1ccc(/C=N/O[C@@H](C)CN2CCCCc3nc(C)c(C)cc32)cc1 | 6.19 µM | > 25 µM
72 | c1n[nH]c(NCc2ccc3c(c2)OCO3)n1 | > 25 µM (inactive) | > 25 µM
73 | CCOC(=O)c1c(NC(=O)c2cccs2)sc2c1CCCC2 | > 25 µM (inactive) | > 25 µM
74 | O=C(NCc1ccco1)c1cccnc1-c1nc2ccccc2s1 | > 25 µM (inactive) | > 25 µM
75 | CCCCCC(=O)O[C@]1(C(C)=O)CC[C@H]2[C@@H]3CCC4=CC(=O)CC[C@]4(C)[C@H]3CC[C@@]21C | 12.7 µM | > 25 µM
76 | CCOC(=O)c1c(C)[nH]c(C)c1C(=O)COC(=O)c1cc2ccccc2cc1O | 17.2 µM | > 25 µM
77 | O=[N+]([O-])c1ccc(Nc2c3ccccc3nc3ccccc23)cc1 | 12.4 µM | 18.1 µM
78 | CC(=O)N1N=C(c2ccc(C)cc2)OC1c1ccc(Br)cc1 (stereo unspecified) | 21 µM | > 25 µM
79 | CCCCCCn1c(N)c(C(=O)NCCN2CCOCC2)c2nc3ccccc3nc21 | > 25 µM (inactive) | > 25 µM
80 | O=C(NC(Cc1c[nH]c2ccccc12)C(=O)Nc1ccc(OC(F)(F)F)cc1)c1cccs1 (stereo unspecified) | > 25 µM (inactive) | > 25 µM
81 | O=C(N/N=C/C=C/c1ccccc1)C1CC1c1ccccc1 (stereo unspecified) | > 25 µM (inactive) | > 25 µM
